Source: ChEMBL document CHEMBL4308841, “Synthesis, in vitro antiproliferative activity, and kinase inhibitory effects of pyrazole-containing diarylureas and diarylamides” (Eur J Med Chem, 2018)

Tests used:
HL-60(TB) = assay: Growth inhibition of human HL-60(TB) cells assessed as cell growth at 10 uM incubated for 48 hrs by sulforhodamine B assay relative to control; type: functional; details: HL-60, 48 h, read-out: Activity
K562 = assay: Growth inhibition of human K562 cells assessed as cell growth at 10 uM incubated for 48 hrs by sulforhodamine B assay relative to control; type: functional; details: K562, 48 h, read-out: Activity
RPMI-8226 = assay: Growth inhibition of human RPMI8226 cells assessed as cell growth at 10 uM incubated for 48 hrs by sulforhodamine B assay relative to control; type: functional; details: RPMI-8226, 48 h, read-out: Activity
SR = assay: Growth inhibition of human SR cells assessed as cell growth at 10 uM incubated for 48 hrs by sulforhodamine B assay relative to control; type: functional; details: read-out: Activity
HOP-62 = assay: Growth inhibition of human HOP62 cells assessed as cell growth at 10 uM incubated for 48 hrs by sulforhodamine B assay relative to control; type: functional; details: HOP-62, 48 h, read-out: Activity
HCC 2998 [1] = assay: Growth inhibition of human HCC2998 cells assessed as cell growth at 10 uM incubated for 48 hrs by sulforhodamine B assay relative to control; type: functional; details: HCC 2998, 48 h, read-out: Activity
HCT-15 = assay: Growth inhibition of human HCT15 cells assessed as cell growth at 10 uM incubated for 48 hrs by sulforhodamine B assay relative to control; type: functional; details: HCT-15, 48 h, read-out: Activity
SF-268 = assay: Growth inhibition of human SF268 cells assessed as cell growth at 10 uM incubated for 48 hrs by sulforhodamine B assay relative to control; type: functional; details: SF-268, 48 h, read-out: Activity
SF-295 = assay: Growth inhibition of human SF295 cells assessed as cell growth at 10 uM incubated for 48 hrs by sulforhodamine B assay relative to control; type: functional; details: SF-295, 48 h, read-out: Activity
SNB-19 = assay: Growth inhibition of human SNB19 cells assessed as cell growth at 10 uM incubated for 48 hrs by sulforhodamine B assay relative to control; type: functional; details: SNB-19, 48 h, read-out: Activity
LOX IMVI = assay: Growth inhibition of human LOXIMVI cells assessed as cell growth at 10 uM incubated for 48 hrs by sulforhodamine B assay relative to control; type: functional; details: read-out: Activity
Malme-3M = assay: Growth inhibition of human MALME-3M cells assessed as cell growth at 10 uM incubated for 48 hrs by sulforhodamine B assay relative to control; type: functional; details: read-out: Activity
M14 [2] = assay: Growth inhibition of human M14 cells assessed as cell growth at 10 uM incubated for 48 hrs by sulforhodamine B assay relative to control; type: functional; details: M14, 48 h, read-out: Activity
MDA-MB-435 = assay: Growth inhibition of human MDA-MB-435 cells assessed as cell growth at 10 uM incubated for 48 hrs by sulforhodamine B assay relative to control; type: functional; details: MDA-MB-435, 48 h, read-out: Activity
UACC-257 = assay: Growth inhibition of human UACC257 cells assessed as cell growth at 10 uM incubated for 48 hrs by sulforhodamine B assay relative to control; type: functional; details: UACC-257, 48 h, read-out: Activity
OVCAR-4 [3] = assay: Growth inhibition of human OVCAR4 cells assessed as cell growth at 10 uM incubated for 48 hrs by sulforhodamine B assay relative to control; type: functional; details: OVCAR-4, 48 h, read-out: Activity
OVCAR-8 = assay: Growth inhibition of human OVCAR8 cells assessed as cell growth at 10 uM incubated for 48 hrs by sulforhodamine B assay relative to control; type: functional; details: OVCAR-8, 48 h, read-out: Activity
NCI/ADR-RES = assay: Growth inhibition of human NCI/ADR-RES cells assessed as cell growth at 10 uM incubated for 48 hrs by sulforhodamine B assay relative to control; type: functional; details: read-out: Activity
SK-OV-3 = assay: Growth inhibition of human SKOV3 cells assessed as cell growth at 10 uM incubated for 48 hrs by sulforhodamine B assay relative to control; type: functional; details: SK-OV-3, 48 h, read-out: Activity
Hs-578T = assay: Growth inhibition of human Hs578T cells assessed as cell growth at 10 uM incubated for 48 hrs by sulforhodamine B assay relative to control; type: functional; details: read-out: Activity
MDA-MB-468 [4] = assay: Growth inhibition of human MDA-MB-468 cells assessed as cell growth at 10 uM incubated for 48 hrs by sulforhodamine B assay relative to control; type: functional; details: MDA-MB-468, 48 h, read-out: Activity
HCC 2998 [5] = assay: Growth inhibition of human HCC2998 cells incubated for 48 hrs by sulforhodamine B assay; type: functional, cell-based; details: HCC 2998, 48 h
U-251 [6] = assay: Growth inhibition of human U251 cells incubated for 48 hrs by sulforhodamine B assay; type: functional, cell-based; details: U-251, 48 h
OVCAR-4 [7] = assay: Growth inhibition of human OVCAR4 cells incubated for 48 hrs by sulforhodamine B assay; type: functional, cell-based; details: OVCAR-4, 48 h
ACHN [8] = assay: Growth inhibition of human ACHN cells incubated for 48 hrs by sulforhodamine B assay; type: functional, cell-based
M14 [9] = assay: Growth inhibition of human M14 cells assessed as cell growth at 0.01 uM incubated for 48 hrs by sulforhodamine B assay relative to control; type: functional; details: M14, 48 h, read-out: Activity
UO-31 = assay: Growth inhibition of human UO31 cells assessed as cell growth at 0.01 uM incubated for 48 hrs by sulforhodamine B assay relative to control; type: functional; details: UO-31, 48 h, read-out: Activity
UACC-62 = assay: Growth inhibition of human UACC62 cells assessed as cell growth at 0.1 uM incubated for 48 hrs by sulforhodamine B assay relative to control; type: functional; details: UACC-62, 48 h, read-out: Activity
U-251 [10] = assay: Growth inhibition of human U251 cells assessed as cell growth at 1 uM incubated for 48 hrs by sulforhodamine B assay relative to control; type: functional; details: U-251, 48 h, read-out: Activity
ACHN [11] = assay: Growth inhibition of human ACHN cells assessed as cell growth at 100 uM incubated for 48 hrs by sulforhodamine B assay relative to control; type: functional; details: read-out: Activity
MDA-MB-468 [12] = assay: Growth inhibition of human MDA-MB-468 cells assessed as cell growth at 100 uM incubated for 48 hrs by sulforhodamine B assay relative to control; type: functional; details: MDA-MB-468, 48 h, read-out: Activity
[13] = read-out: LC50 (the source's name)
[14] = read-out: pLC50 (the source's name) (converted)

COc1cc(Cl)cc(-c2nn(-c3cccc(NC(=O)c4ccc(N5CCOCC5)c(C(F)(F)F)c4)c3)cc2-c2ccncc2)c1
growth at 10 µM (HL-60(TB)): 2.73% | growth at 10 µM (K562): 4.03% | growth at 10 µM (RPMI-8226): 25.2% | growth at 10 µM (SR): 18.4% | growth at 10 µM (HOP-62): 52.1% | growth at 10 µM (HCC 2998 [1]): 52.3% | growth at 10 µM (HCT-15): 17.2% | growth at 10 µM (SF-268): 67.3% | growth at 10 µM (SF-295): 2.6% | growth at 10 µM (SNB-19): 75.5% | growth at 10 µM (LOX IMVI): 47.3% | growth at 10 µM (Malme-3M): 57.9% | growth at 10 µM (M14 [2]): 56.7% | growth at 10 µM (MDA-MB-435): 63.4% | growth at 10 µM (UACC-257): 63.5% | growth at 10 µM (OVCAR-4 [3]): 67.9% | growth at 10 µM (OVCAR-8): 42.1% | growth at 10 µM (NCI/ADR-RES): 46.1% | growth at 10 µM (SK-OV-3): 75.7% | growth at 10 µM (Hs-578T): 40.7% | growth at 10 µM (MDA-MB-468 [4]): 50.2% | GI50 (HCC 2998 [5]; read-out: GI50): 5.06 µM | CC50 (HCC 2998 [5]; [13]): > 100 µM | TGI (HCC 2998 [5]; read-out: TGI): 74.7 µM | GI50 (HCC 2998 [5]; read-out: pGI50 (converted)): 6.03 µM | CC50 (HCC 2998 [5]; [14]): > 100 µM | TGI (HCC 2998 [5]; read-out: pTGI (converted)): 74.1 µM | IC50 (U-251 [6]): 5.03 µM | GI50 (U-251 [6]; read-out: GI50): 5.03 µM | CC50 (U-251 [6]; [13]): > 100 µM | TGI (U-251 [6]; read-out: TGI): > 100 µM | GI50 (U-251 [6]; read-out: pGI50 (converted)): 5.01 µM | CC50 (U-251 [6]; [14]): > 100 µM | TGI (U-251 [6]; read-out: pTGI (converted)): > 100 µM | GI50 (OVCAR-4 [7]; read-out: GI50): 3.97 µM | CC50 (OVCAR-4 [7]; [13]): > 100 µM | TGI (OVCAR-4 [7]; read-out: TGI): > 100 µM | GI50 (OVCAR-4 [7]; read-out: pGI50 (converted)): 39.8 µM | CC50 (OVCAR-4 [7]; [14]): > 100 µM | TGI (OVCAR-4 [7]; read-out: pTGI (converted)): > 100 µM | GI50 (ACHN [8]; read-out: GI50): 7.31 µM | CC50 (ACHN [8]; [13]): > 100 µM | TGI (ACHN [8]; read-out: TGI): > 100 µM | GI50 (ACHN [8]; read-out: pGI50 (converted)): 7.24 µM | CC50 (ACHN [8]; [14]): > 100 µM | TGI (ACHN [8]; read-out: pTGI (converted)): > 100 µM | growth at 0.01 µM (M14 [9]): 97% | growth at 0.01 µM (UO-31): 92% | growth at 0.1 µM (UACC-62): 91% | growth at 1 µM (U-251 [10]): 78% | growth at 100 µM (ACHN [11]): 28% | growth at 100 µM (MDA-MB-468 [12]): 17%

COc1cc(Cl)cc(-c2nn(-c3cccc(NC(=O)c4cc(C(F)(F)F)cc(C(F)(F)F)c4)c3)cc2-c2ccncc2)c1
growth at 10 µM (HL-60(TB)): 84.3% | growth at 10 µM (K562): 38% | growth at 10 µM (RPMI-8226): 43.6% | growth at 10 µM (SR): 41% | growth at 10 µM (HOP-62): 103% | growth at 10 µM (HCC 2998 [1]): 78.3% | growth at 10 µM (HCT-15): 58.6% | growth at 10 µM (SF-268): 89.2% | growth at 10 µM (SF-295): 42.1% | growth at 10 µM (SNB-19): 86.4% | growth at 10 µM (LOX IMVI): 76.1% | growth at 10 µM (Malme-3M): 104% | growth at 10 µM (M14 [2]): 67.3% | growth at 10 µM (MDA-MB-435): 80% | growth at 10 µM (UACC-257): 79.3% | growth at 10 µM (OVCAR-4 [3]): 72.1% | growth at 10 µM (OVCAR-8): 55.4% | growth at 10 µM (NCI/ADR-RES): 67.8% | growth at 10 µM (SK-OV-3): 83.4% | growth at 10 µM (Hs-578T): 81.1% | growth at 10 µM (MDA-MB-468 [4]): 46.5%
